Source: the NIST ThermoML archive (doi:10.1016/j.jct.2019.05.015)
“And” between values parts separate entries of the source, which are not always exact repeats. Equal values may be shown once.

Experiments:
[1] = Molar enthalpy of transition or fusion; settings: Crystal; DSC
[2] = for Normal melting temperature: Crystal, DTA; for Glass transition temperature: DSC
[3] = molar heat capacity at constant pressure; settings: 101.33 kPa, DSC

Nc1cccc(N)c1 [1,3-benzenediamine]
Settings | Glass transition temperature [°C] | Molar enthalpy of transition or fusion [kcal/mol] | Normal melting temperature [°C]
[1] | – | 3.71 | –
[2] | -29 | – | 63.0

[3]
Settings | molar heat capacity at constant pressure [J/K/mol]
223 K, Crystal | 108.9
243 K, Crystal | 121.4
253 K, Metastable liquid | 207.5
263 K, Crystal | 133.8
273 K, Metastable liquid | 213.4
283 K, Crystal | 146.2
293 K, Metastable liquid | 219.3
303 K, Crystal | 158.7
313 K, Metastable liquid | 225.2
323 K, Metastable liquid | 229.7
333 K, Metastable liquid | 231.2
343 K, Liquid | 234
353 K, Liquid | 237.1
363 K, Liquid | 240.2

Oc1cccc(O)c1 [1,3-benzenediol]
Settings | Molar enthalpy of transition or fusion [kcal/mol] | Normal melting temperature [°C]
[1] | 4.82 | –
[2] | – | 109.1

molar heat capacity at constant pressure [J/K/mol], [3]
Settings | 233 K | 253 K | 273 K | 293 K | 303 K | 313 K | 323 K | 333 K | 343 K | 363 K
Crystal | 103.9 | 114.4 | 124.9 | 135.3 | – | 145.8 | – | 156.3 | – | –
Metastable liquid | – | – | – | – | 237.2 | – | 245.8 | – | 254.3 | 262.9

Oc1ccc2c(O)cccc2c1 [1,6-dihydroxynaphthalene]
Settings | Glass transition temperature [°C] | Molar enthalpy of transition or fusion [kcal/mol] | Normal melting temperature [°C]
[1] | – | 6.17 | –
[2] | 32 | – | 137.1

[3]
Settings | molar heat capacity at constant pressure
218 K, Glass | 131.4 J/K/mol
238 K, Glass | 147.4 J/K/mol
243 K, Crystal | 149.1 J/K/mol
258 K, Glass | 163.5 J/K/mol
263 K, Crystal | 161.4 J/K/mol
283 K, Crystal | 173.7 J/K/mol
303 K, Crystal | 186 J/K/mol
323 K, Crystal | 197.9 J/K/mol and 198.4 J/K/mol
323 K, Metastable liquid | 311.2 J/K/mol
343 K, Crystal | 210.6 J/K/mol and 210.7 J/K/mol
343 K, Metastable liquid | 315.6 J/K/mol
363 K, Crystal | 223.2 J/K/mol and 223 J/K/mol
363 K, Metastable liquid | 319.9 J/K/mol
383 K, Crystal | 235.9 J/K/mol
383 K, Metastable liquid | 324.3 J/K/mol
403 K, Metastable liquid | 328.7 J/K/mol

Nc1cccc2ccccc12 [1-naphthalenamine]
Settings | Molar enthalpy of transition or fusion [kcal/mol] | Normal melting temperature [°C]
[1] | 3.46 | –
[2] | – | 48.2

Oc1cccc2ccccc12 [1-naphthol]
Settings | Molar enthalpy of transition or fusion [kcal/mol] | Normal melting temperature [°C]
[1] | 5.23 | –
[2] | – | 94.8

Oc1ccc2ccccc2c1 [2-hydroxynaphthalene]
Settings | Molar enthalpy of transition or fusion [kcal/mol] | Normal melting temperature [°C]
[1] | 5.35 | –
[2] | – | 121.2

Nc1ccc2ccccc2c1 [2-naphthalenamine]
Settings | Molar enthalpy of transition or fusion [kcal/mol] | Normal melting temperature [°C]
[1] | 5.32 | –
[2] | – | 109.5

Nc1ccc(Cl)cc1 [4-chlorobenzenamine]
Settings | Molar enthalpy of transition or fusion [kcal/mol] | Normal melting temperature [°C]
[1] | 4.71 | –
[2] | – | 70

Cc1ccc(O)cc1 [4-methylphenol]
Settings | Molar enthalpy of transition or fusion [kcal/mol] | Normal melting temperature [°C]
[1] | 2.81 | –
[2] | – | 34.8
